This data set in a line: Preformulation stability and solubility tests of calcitriol in two excipients. The data set is classed as physicochemical. The conditions noted are these: 800 ppm; 4° C., ambient temperature and 40° C.; 1 month. As to the method:
Preliminary preformulation studies were carried out to direct the choice of the lipid core (oily internal phase) of the lipid vesicles. The results of tests of stability and of solubility of calcitriol in two excipients are presented in the graphs below. The objective of these solubility and stability studies on calcitriol is to find the oil which will make possible good solubility of calcitriol for the proposals for internal phase used in this concept and good stability of calcitriol in this excipient. Calcitriol is stable at 800 ppm in Miglyol 812 (caprylic/capric triglyceride: MTC) and tocopherol acetate at the three temperatures (4° C., ambient temperature and 40° C.) for 1 month.

The values below come from US20100221350A1, “DERMATOLOGICAL COMPOSITIONS COMPRISING VITAMIN D LIPID VESICLES” (GALDERMA S.A., priority 2007, published 2010).

Regarding `C=C1/C(=C\C=C2/CCC[C@]3(C)[C@@H]([C@H](C)CCCC(C)(C)O)CC[C@@H]23)C[C@@H](O)C[C@@H]1O` [Calcitriol, calcitriol], the “Stability of calcitriol in Miglyol 812 (caprylic/capric triglyceride)” value is on record as “stable” and the “Stability of calcitriol in tocopherol acetate” value was “stable”.
